Source: US11766470B2, “Manufacture, formulation and dosing of apraglutide” (VectivBio AG, priority 2020, dated 2023)
Where “and” joins values, the source holds several entries; their conditions need not be identical. Equal entries are not always repeated. Square brackets hold non-standard residues; d marks the D form. Peptide text beside a SMILES is read from it. ξ: configuration not given here. Ile(3ξ) = CCC(C)[C@H](N)C(=O)O; Thr(3ξ) = CC(O)[C@H](N)C(=O)O; Nle = CCCC[C@H](N)C(=O)O

Legend:
[1] = test system: healthy adult volunteers; test: Multiple dose study in healthy volunteers (Examples 4 and 7), pharmacodynamics: plasma citrulline, Bristol stool scale, body weight; format: in vivo, human
Protocol: The endogenous marker citrulline was selected to assess the pharmacodynamic effect of apraglutide. Citrulline was detected in all baseline and post-dose samples. Three baseline citrulline samples were obtained during two baseline visits between screening and the first dosing day and before dosing on the first dosing day. […] At baseline, the mean citrulline range was 5.3825-5.6207 μg/mL for placebo, 5.3900-6.2028 μg/mL for 1 mg apraglutide, 4.8983-5.3023 μg/mL for 5 mg apraglutide and 5.0730-5.4690 μg/mL for 10 mg apraglutide. In the placebo group, the mean citrulline concentration remained relatively stable over the trial, ranging from 4.9735 to 5.8253 μg/mL.
In short, the first contrast tested compared the mean Rpre-dose at the first time point (week 1) to the pooled mean Rpre-dose over all remaining time points (week 2 to 6). The second contrast compared the mean at week 2 to the pooled mean over week 3 to 6, etc. Testing continued until the contrast was not statistically significant. The mean Rpre-dose at week 6 for 10 mg against mean Rpre-dose over week 5 (0.8720, 95% CI: 0.1590; 1.5850 and p=0.0172) was statistically significant.
Besides citrulline, the Bristol stool scale and body weight were assessed as pharmacodynamic endpoints. In contrast to citrulline and weight, the Bristol stool scale is a discrete variable. Subjects assessed their stool in the past 24 hours using the Bristol stool scale ranging from constipation (type 1) to diarrhea (type 7). No stool in the past 24 hours was recorded as zero. As two subjects (assigned to either 1 or 5 mg) reported no stool preceding the first dose, the screening Bristol stool scale score was also taken into account when determining the baseline Bristol stool scale score.
Citrulline, BSS and weight data are analyzed with a mixed model analysis of variance with fixed factors treatment, time and treatment by time, random factor subject, and the average prevalue as covariate. The average pre-value was calculated from all pre-values after screening and before dosing, except for BSS, where the screening value was also used to calculate the average baseline.
For all pharmacodynamic endpoints (citrulline, Bristol stool scale and weight), the pre-value has been used as covariate. The average pre-value was calculated from all pre-values after screening and before dosing, except for the Bristol stool scale, where the screening value was also used to calculate the average baseline. The average pre-value of citrulline was also used as covariate in the MCP-MOD, except in the Sigmoid Emax model. This was addressed by subtracting the pre-value times the slope of the linear model of the MCP part from the values of week 6.

[2] = test system: patients with SBS-IF or SBS-II; details: in vivo
Protocol: Patients were treated with once weekly 5 mg apraglutide for four weeks. Apraglutide was provided as a freeze-dried powder for reconstitution in sterile water prior to injection, and treatments were administered as subcutaneous injections in the abdominal area. A 72-hour metabolic balance study was performed at baseline and at the end of the treatment period (starting one day after the fourth and last apraglutide injection). Each 72-hour metabolic balance study was performed during a five-day hospital admission. On the day of admission, patients were instructed to create a 24-hour drinking menu based on their habitual oral fluid intake. The drinking menu was to be followed during each balance study. On the second day of admission, just after the patients had urinated and emptied their stoma bags or defecated, the balance study was initiated. […] Daily PS and compliance to the predefined drinking menu was documented during admissions.
First, second and fourth apraglutide injections were performed at the hospital. Safety assessments included observation for injection site reactions, vital signs, blood samples, electrocardiogram (ECG), urinalysis and body weight. They were performed at baseline, during each injection of the trial drug, four days after first injection, at the end of treatment and 4-6 weeks after last dosing at the end of the trial, as shown in Table 20. Liver enzymes were measured prior to each drug administration.

[3] = 1 mg, over the whole trial period
[4] = 5 mg, over the whole trial period
[5] = 10 mg, over the whole trial period (N = 5)

## CCCC[C@H](NC(=O)[C@H](CCC(=O)O)NC(=O)[C@H](CC(=O)O)NC(=O)[C@H](CO)NC(=O)[C@H](Cc1ccccc1)NC(=O)[C@H](CO)NC(=O)CNC(=O)[C@H](CC(=O)O)NC(=O)CNC(=O)[C@@H](N)Cc1c[nH]cn1)C(=O)N[C@H](Cc1ccccc1)C(=O)N[C@H](C(=O)N[C@H](C(=O)N[C@@H](CC(C)C)C(=O)N[C@@H](CC(=O)O)C(=O)N[C@@H](CC(C)C)C(=O)N[C@@H](CC(C)C)C(=O)N[C@@H](C)C(=O)N[C@@H](C)C(=O)N[C@@H](CCCNC(=N)N)C(=O)N[C@@H](CC(=O)O)C(=O)N[C@@H](Cc1ccccc1)C(=O)N[C@H](C(=O)N[C@@H](CC(N)=O)C(=O)N[C@@H](Cc1c[nH]c2ccccc12)C(=O)N[C@@H](CC(C)C)C(=O)N[C@H](C(=O)N[C@@H](CCC(N)=O)C(=O)N[C@H](C(=O)N[C@@H](CCCCN)C(=O)N[C@H](C(=O)N[C@H](C(=O)N[C@@H](CC(=O)O)C(N)=O)C(C)O)C(C)CC)C(C)O)C(C)CC)C(C)CC)C(C)CC)C(C)O (stereo partly drawn) [apraglutide, L-histidyl-glycyl-L-aspartyl-glycyl-L-seryl-L-phenylalanyl-L-seryl-L-aspartyl-L-glutamyl-L-norleucyl-D-phenylalanyl-L-threonyl-Lisoleucyl-L-leucyl-L-aspartyl-L-leucyl-L-leucyl-L-alanyl-L-alanyl-L-arginyl-L-aspartyl-L-phenylalanyl-L-isoleucyl-L-asparaginyl-Ltryptophanyl-L-leucyl-L-isoleucyl-L-glutaminyl-L-threonyl-L-lysyl-L-isoleucyl-L-threonyl-Laspartic acid amide] (H-HGDGSFSDE[Nle][dF][Thr(3ξ)][Ile(3ξ)]LDLLAARDF[Ile(3ξ)]NWL[Ile(3ξ)]Q[Thr(3ξ)]K[Ile(3ξ)][Thr(3ξ)]D-NH2)
[1]; 1 mg
  Difference between mean Rmax over the whole trial and Rmax after last dose: 0.1016 µg/mL
[1]; 1 mg - 5 mg
  Bristol stool scale with zeroes set to missing, estimate of the difference: 0.2
  Bristol stool scale, estimate of the difference: −0.1
  Citrulline, estimate of the difference: 0.9429 µg/mL
  Weight, estimate of the difference: -0.115 kg
[1]; 1 mg - 10 mg
  Bristol stool scale with zeroes set to missing, estimate of the difference: 0.1
  Bristol stool scale, estimate of the difference: 0.3
  Citrulline, estimate of the difference: 1.3198 µg/mL
  Weight, estimate of the difference: 0.419 kg
[1]; 1 mg group (2 subjects)
  No stool in the past 24 hours, number of reports: 6 times
[1]; 1 mg, after four days
  Highest mean citrulline value following the first weekly SC dose: 6.3920 µg/mL
[1]; 1 mg, after last dose 6
  Citrulline Rtmax, median: 2.0 days
[1]; 1 mg, last dose 1
  Citrulline Rpre-dose, arithmetic mean ± SD: 5.8075 ± 1.3328 µg/mL
  Citrulline Rpre-dose, geometric mean: 5.6723 µg/mL
[1]; 1 mg, last dose 2
  Citrulline Rpre-dose, arithmetic mean ± SD: 6.2605 ± 1.2331 µg/mL
  Citrulline Rpre-dose, geometric mean: 6.1526 µg/mL
[1]; 1 mg, last dose 3
  Citrulline Rpre-dose, arithmetic mean ± SD: 6.4913 ± 1.8297 µg/mL
  Citrulline Rpre-dose, geometric mean: 6.2752 µg/mL
[1]; 1 mg, last dose 4
  Citrulline Rpre-dose, arithmetic mean ± SD: 6.0050 ± 1.5790 µg/mL
  Citrulline Rpre-dose, geometric mean: 5.8213 µg/mL
[1]; 1 mg, last dose 5
  Citrulline Rpre-dose, arithmetic mean ± SD: 6.4128 ± 1.8032 µg/mL
  Citrulline Rpre-dose, geometric mean: 6.2097 µg/mL
[1]; 1 mg, last dose 6
  Citrulline Rmax, arithmetic mean ± SD: 7.1702 µg/mL
  Citrulline Rmax, geometric mean: 7.0069 µg/mL
  Citrulline Rpre-dose, arithmetic mean ± SD: 6.3120 ± 1.6694 µg/mL
  Citrulline Rpre-dose, geometric mean: 6.1166 µg/mL
[1]; 1 mg, last dose 6, listed as Apraglutide
  Citrulline Rmax, arithmetic mean ± SD: 7.1702 ± 1.6611 µg/mL
[1]; [3]
  Citrulline Rmax, arithmetic mean ± SD: 7.2718 ± 1.6959 µg/mL
  Citrulline Rmax, geometric mean: 7.1036 µg/mL
[1]; 1 mg, whole trial period, from first dose
  Citrulline Rtmax, median: 35.9 days
[1]; 5 mg
  Difference between mean Rmax over the whole trial and Rmax after last dose: 0.0973 µg/mL
[1]; 5 mg - 10 mg
  Bristol stool scale with zeroes set to missing, estimate of the difference: −0.0
  Bristol stool scale, estimate of the difference: 0.5
  Citrulline, estimate of the difference: 0.3769 µg/mL
  Weight, estimate of the difference: 0.534 kg
[1]; 5 mg group (4 subjects)
  No stool in the past 24 hours, number of reports: 13 times
[1]; 5 mg, after four days
  Highest mean citrulline value following the first weekly SC dose: 7.1933 µg/mL
[1]; 5 mg, after last dose 6
  Citrulline Rtmax, median: 3.9 days
[1]; 5 mg, last dose 1
  Citrulline Rpre-dose, arithmetic mean ± SD: 6.7695 ± 1.5288 µg/mL
  Citrulline Rpre-dose, geometric mean: 6.5967 µg/mL
[1]; 5 mg, last dose 2
  Citrulline Rpre-dose, arithmetic mean ± SD: 7.0082 ± 1.1330 µg/mL
  Citrulline Rpre-dose, geometric mean: 6.9208 µg/mL
[1]; 5 mg, last dose 3
  Citrulline Rpre-dose, arithmetic mean ± SD: 6.6155 ± 1.2790 µg/mL
  Citrulline Rpre-dose, geometric mean: 6.5109 µg/mL
[1]; 5 mg, last dose 4
  Citrulline Rpre-dose, arithmetic mean ± SD: 6.6227 ± 1.2247 µg/mL
  Citrulline Rpre-dose, geometric mean: 6.5313 µg/mL
[1]; 5 mg, last dose 5
  Citrulline Rpre-dose, arithmetic mean ± SD: 6.8307 ± 1.2369 µg/mL
  Citrulline Rpre-dose, geometric mean: 6.7248 µg/mL
[1]; 5 mg, last dose 6
  Citrulline Rmax, arithmetic mean ± SD: 8.1577 µg/mL
  Citrulline Rmax, geometric mean: 8.0024 µg/mL
  Citrulline Rpre-dose, arithmetic mean ± SD: 7.2498 ± 1.2461 µg/mL
  Citrulline Rpre-dose, geometric mean: 7.1475 µg/mL
[1]; 5 mg, last dose 6, listed as Apraglutide
  Citrulline Rmax, arithmetic mean ± SD: 8.1577 ± 1.7108 µg/mL
[1]; [4]
  Citrulline Rmax, arithmetic mean ± SD: 8.2550 ± 1.7807 µg/mL
  Citrulline Rmax, geometric mean: 8.0870 µg/mL
[1]; 5 mg, whole trial period, from first dose
  Citrulline Rtmax, median: 38.9 days
[1]; 10 mg
  Difference between mean Rmax over the whole trial and Rmax after last dose: 0.0362 µg/mL
[1]; 10 mg group (1 subject)
  No stool in the past 24 hours, number of reports: 1 time
[1]; 10 mg, Helmert's approach
  Steady-state contrast: mean citrulline Rpre-dose at week 6 against week 5: 0.8720
[1]; 10 mg, after 7 days
  Highest mean citrulline value following the first weekly SC dose: 7.8487 µg/mL
[1]; 10 mg, after last dose 6 (N = 5)
  Citrulline Rtmax, median: 3.9 days
[1]; 10 mg, last dose 1
  Citrulline Rpre-dose, arithmetic mean ± SD: 7.8487 ± 2.7273 µg/mL
  Citrulline Rpre-dose, geometric mean: 7.4048 µg/mL
[1]; 10 mg, last dose 2
  Citrulline Rpre-dose, arithmetic mean ± SD: 7.6058 ± 2.3210 µg/mL
  Citrulline Rpre-dose, geometric mean: 7.2438 µg/mL
[1]; 10 mg, last dose 3
  Citrulline Rpre-dose, arithmetic mean ± SD: 7.5180 ± 2.1369 µg/mL
  Citrulline Rpre-dose, geometric mean: 7.2331 µg/mL
[1]; 10 mg, last dose 4 (N = 5)
  Citrulline Rpre-dose, arithmetic mean ± SD: 7.2060 ± 2.5488 µg/mL
  Citrulline Rpre-dose, geometric mean: 6.8103 µg/mL
[1]; 10 mg, last dose 5 (N = 5)
  Citrulline Rpre-dose, arithmetic mean ± SD: 7.1994 ± 2.5111 µg/mL
  Citrulline Rpre-dose, geometric mean: 6.7908 µg/mL
[1]; 10 mg, last dose 6 (N = 5)
  Citrulline Rmax, arithmetic mean ± SD: 8.7254 µg/mL
  Citrulline Rmax, geometric mean: 8.2533 µg/mL
  Citrulline Rpre-dose, arithmetic mean ± SD: 8.0714 ± 3.0514 µg/mL
  Citrulline Rpre-dose, geometric mean: 7.5618 µg/mL
[1]; 10 mg, last dose 6 (N = 5), listed as Apraglutide
  Citrulline Rmax, arithmetic mean ± SD: 8.7254 ± 3.0145 µg/mL
[1]; [5]
  Citrulline Rmax, arithmetic mean ± SD: 8.7616 ± 2.9900 µg/mL
  Citrulline Rmax, geometric mean: 8.2953 µg/mL
[1]; 10 mg, two subjects
  Citrulline Rt1/2, individual subjects: 6.5 days and 11.0 days
[1]; 10 mg, whole trial period, from first dose (N = 5)
  Citrulline Rtmax, median: 36.9 days
[1]; 1, 5 or 10 mg
  Time after first dose at which increases in citrulline were observed: 2 days
[1]; Placebo - 1 mg
  Bristol stool scale with zeroes set to missing, estimate of the difference: −0.6
  Bristol stool scale, estimate of the difference: −0.9
  Weight, estimate of the difference: -0.750 kg
[1]; Placebo - 1 mg, 6 weekly SC doses
  Citrulline, estimate of the difference: 0.3146 µg/mL
[1]; Placebo - 1 mg, 6 weekly SC doses, listed as Apraglutide
  Citrulline, estimate of the difference: 0.31 [95% CI: −0.4371; μg/mL
[1]; Placebo - 5 mg
  Bristol stool scale with zeroes set to missing, estimate of the difference: −0.4
  Bristol stool scale, estimate of the difference: −1.0
  Weight, estimate of the difference: -0.865 kg
[1]; Placebo - 5 mg, 6 weekly SC doses
  Citrulline, estimate of the difference: 1.2574 µg/mL
[1]; Placebo - 5 mg, 6 weekly SC doses, listed as Apraglutide
  Citrulline, estimate of the difference: 1.26 [95% CI: 0.5037; μg/mL
[1]; Placebo - 10 mg
  Bristol stool scale with zeroes set to missing, estimate of the difference: −0.5
  Bristol stool scale, estimate of the difference: −0.6
  Weight, estimate of the difference: -0.331 kg
[1]; Placebo - 10 mg, 6 weekly SC doses
  Citrulline, estimate of the difference: 1.6343 µg/mL
[1]; Placebo - 10 mg, 6 weekly SC doses, listed as Apraglutide
  Citrulline, estimate of the difference: 1.63 [95% CI: 0.8809; μg/mL
[1]; week 6
  Variability in citrulline Rmax explained by AUCtau (R squared): 26%
[1]; week 6, regression line
  Increase of maximum citrulline response per 100 d*ng/mL increase in AUCtau: 390 ng/mL
[2]
  Deaths: no deaths occurred
